According to patent US20180353445A1, “METHODS AND COMPOSITIONS RELATING TO PROTEASOME INHIBITOR RESISTANCE” (Whitehead Institute for Biomedical Research, priority 2017, published 2018):

How the values were obtained:
T47D cells = assay: Cell viability, T47D cells with doxycycline-inducible PSMD2 shRNA (KD) vs control; format: cell-based, human
FDX1 = target: T1, FDX1 (Homo sapiens, UniProt P10109); assay: Electron transfer assay, reduced FDX1 to SDA complex; format: biochemical; details: upon addition of cysteine
T1 construct: made in house
T1 sequence (P10109 62-184): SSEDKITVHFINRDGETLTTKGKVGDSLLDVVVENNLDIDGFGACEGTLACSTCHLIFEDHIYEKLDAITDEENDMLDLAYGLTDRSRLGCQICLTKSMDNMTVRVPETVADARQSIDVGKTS
Text: (§1) Fe—S clusters are generated from sulfur extracted from cysteine by the iron sulfur-cluster (ISC) core complex (NFS1-ISD11-Acp-ISCU)2 and iron. A reductant (FDX1 or FDX2) is required for Fc-S cluster biosynthesis (Lill and Muhlenhoff, 2006; Py and Barras, 2010) (FIG. 53A). To investigate the effect of elesclomol on mitochondrial Fe—S cluster biosynthesis, we utilized in vitro Fe—S cluster assembly assays. […] As further confirmation, we examined the effect of elesclomol on electron transfer from reduced FDX1 to the ISC core complex upon the addition of cysteine.
Electron transfer assay—Electron transfer from re-FDX1 SDA complex was monitored as follows. 25 μM reduced FDX1 was mixed with 25 μM SDA, and 125 μM L-cysteine was added to initiate the reaction. To test the effect of the drug, samples contained 25-500 μM elesclomol (1-20× relative to FDX1). Samples were then transferred to 1 cm path-length quartz cuvettes, sealed with rubber septa, and UV/vis spectra were collected at 25° C. The growth of absorbance at 456 nm was used to monitor the oxidation of reduced FDX1 as a result of electron transfer to SDA.

[1] = target: T2, cysteine desulfurase (NFS1-ISD11-Acp)2 (SDA) (Homo sapiens, UniProt Q9Y697); assay: Cysteine desulfurase assay (DTT as the reductant); format: biochemical
T2 construct: made in house
T2 sequence (Q9Y697 56-457): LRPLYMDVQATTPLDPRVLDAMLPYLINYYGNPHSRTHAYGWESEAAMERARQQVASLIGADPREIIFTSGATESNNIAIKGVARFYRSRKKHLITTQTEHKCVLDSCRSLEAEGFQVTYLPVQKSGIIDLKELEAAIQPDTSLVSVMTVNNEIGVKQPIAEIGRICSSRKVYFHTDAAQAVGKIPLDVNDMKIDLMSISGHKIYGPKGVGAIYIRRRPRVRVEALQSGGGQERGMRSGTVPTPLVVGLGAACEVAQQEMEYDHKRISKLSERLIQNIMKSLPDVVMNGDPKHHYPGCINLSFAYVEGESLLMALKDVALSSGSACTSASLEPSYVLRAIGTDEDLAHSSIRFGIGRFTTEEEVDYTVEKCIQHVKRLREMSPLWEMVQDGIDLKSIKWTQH
T2 sequence (P0A6A8 2-78, further chain): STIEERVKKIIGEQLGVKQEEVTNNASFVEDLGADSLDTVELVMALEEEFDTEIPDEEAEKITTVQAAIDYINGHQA
T2 sequence (Q9HD34 whole entry, further chain): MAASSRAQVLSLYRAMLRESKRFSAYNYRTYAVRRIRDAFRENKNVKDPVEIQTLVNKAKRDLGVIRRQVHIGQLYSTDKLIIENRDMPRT
Text: as §1
Cysteine desulfurase assay—The protein samples used in the nisteine desulfurase assay and Fe—S cluster assembly experiments were prepared in an anaerobic chamber (Coy Laboratory) with samples buffer-exchanged extensively prior to the experiments with anaerobic buffer containing 20 mM HEPES at pH 7.6 and 150 mM NaCl (HN buffer). The reaction volumes in all the experiments were kept to […]. […]
The cysteine desulfurase assay reactions (300 μL in HN buffer) contained 10 μM SDA. […] The quenched reaction was incubated for 15 min at room temperature, and then the absorbance at 670 nm was measured and used to estimate the amount of sulfide by comparison to a standard curve obtained from known concentrations of Na2S.

For `CC(C)C[C@H](NC(=O)[C@H](Cc1ccccc1)NC(=O)c1cnccn1)B(O)O` [bortezomib], which “resistance of cells harboring PSMD2 shRNA vs parental line (EC50)” value (T47D cells; T47D, transient PSMD2 reduction) is on record?
The value was “EC50 values increased considerably”.

What about the “resistance after transient reduction of PSMD2” value (T47D cells; doxycycline-regulated PSMD2 shRNA) of the same compound?
The value was “significantly increased resistance”.

With `CN(NC(=O)CC(=O)NN(C)C(=S)c1ccccc1)C(=S)c1ccccc1` [elesclomol] as the compound, how does the “inhibition of electron transfer from reduced FDX1 to the NFS1 component of the ISC core complex” value (FDX1) read?
Its value is “progressive inhibition of electron transfer”.

And the “effect on cysteine desulfurase activity” value [1]?
The value was “no inhibitory effect”.
